Assay results published in patent US20120213720A1, “Prodrug composition for skin with twin protecting groups bound by disubstituted benzene” (priority 2011, published 2012).

Columns and labels:
[1] = system: melanin synthesis; settings: cited from earlier work
[2] = system: skin; settings: cited from earlier work
[3] = system: melanocytes in the skin; settings: cited from earlier work
[4] = system: facial freckles and the normal facial skin; assay: Clinical test of whitening effect of DAP-containing cream, smart skin analysis system; type: in vivo
Protocol: Moreover, for proving the whitening effect of the DAP-containing prescription according to the present invention, a clinical test was performed and used the detection device shown in Table 7. Six subjects joining the test received the cream preparation containing 1% or 2% DAP on facial freckles and the normal facial skin twice a day for consecutive […] (2010 Nov. 24-2010 Dec. 15), and the whitening effect was evaluated. [table] According to the foregoing clinical test, data graphs with respect to the disclosed prodrug composition as shown in FIG. 2 through FIG. 7 have been made, while the photographs showing the tested sites of several subjects are reflected in FIG. 8 through FIG.

Structure (SMILES) | anti-melanin effect, times higher than that of HQ ([1]; relative to HQ) [times] | anti-melanin effect, times higher than that of normal arbutin ([1]; relative to normal arbutin) [times] | time to desired clinical effects ([2]; DA solutions with proper concentration) | effect of whitening the skin ([2]; local usage, clinical research for 8 weeks) | safety concentration relative to HQ [3] | side effects (toxic to melanocytes, irritative, allergenic to the skin) ([4]; four-week clinical test, 1% or 2% DAP cream twice a day) | whitening effect on the normal skin ([4]; prescription containing 1% DAP, consecutive four weeks, left cheek) | whitening effect on the solar lentigines ([4]; prescription containing 2% DAP, consecutive four weeks, left cheek)
Oc1ccc(OC2CCCCO2)cc1 (centres unmarked) [DA, deoxy-arbutin] | 10 | 350 | three weeks | progressive and apparent effect of whitening the skin | four times higher | – | – | –
c1cc(OC2CCCCO2)ccc1OC1CCCCO1 (centres unmarked) [DAP, 1,4-bis(tetrahydro-2H-pyran-2-yloxy)benzene] | – | – | – | – | – | without side effects | up to 19% | up to 46%
